In US12070452B2, “Compounds targeting HSP110 protein for cancer treatment” (INSERM (Institut National de la Santé et de la Recherche …, priority 2018, dated 2024):

Legend:
[1] = target: T1, human protein HSP110 (Homo sapiens, UniProt Q92598); test: HSP110 anti-aggregation function (luciferase substrate test); format: biochemical; conditions: human HSP110 1.5 μM with firefly luciferase, 30 min at 42° C.; read-out: IC50 of HSP110 anti-aggregating activity
T1 construct: DNA coding the NBD-HSP110 (from human-HSP110)
Experimental: Anti-aggregation function of HSP110 was evaluated as described by O H et al (The Journal of biological chemistry 274, 15712-15718 (1999)). The human protein HSP110 (obtained as described above) at a concentration of 1.5 μM was incubated with firefly luciferase (from Sigma—from Photinus pyralis) in reaction buffer and heated in water bath for 30 min at 42° C.
Compounds of the present invention were added in reaction buffer to achieve the indicated concentrations and the final DMSO concentration was held constant at 1%. The heated reaction was diluted 10 times into buffer containing 60% of rabbit reticulocytelysate and incubated for 2 hours. The luciferase activity was measured by diluting 5 times the solution in HEPES and adding 5 μL of the solution in luciferase substrate (50 μL of Luciferase Assay System—Promega E1501 diluted in HEPES). The bioluminescence was reading with Envision Perkin Elmer.
The percentage of activity (x) was calculated by using the following equation: x=[(A−B)/(C−B)]×100, where (A) is the luciferase luminescence in presence of compounds of the invention, (B) in absence of HSP110 and (C) in presence of DMSO (Control). The percentage of total folding HSP110-promoted (mean=36%) was calculated considering as 100% the luminescence of luciferase incubated with HSP110 without heat shock. The IC50 were calculated from the dose-response curves, which were fitted by GraphPrism (Equation: Y=100/(1+10^((Log IC50−X)*HillSlope)).

[2] = system: phosphorylated STAT3; test: P-STAT3 level in SW480 cells (immunoblot quantification); format: cell-based, human; conditions: 10 μM, 48 h, normalized by actin
Experimental: Results for SW480 cells treated during 48 h with non-relevant antibody (called NT), compound 52, compound 33, compound 51 and comparative compound 61 at 10 μM, and sh110 cells correspond to the third fourth, fifth, sixth and last columns from the left to the right.
FIG. 3B: Quantification of P-STAT3 level (in percentage) normalized by actin. […] (Ordinate: Percentage of P-STAT3 level (scale 50)
Immunoprecipitation test were realized on human colorectal cancer cells (SW480 and HCT116 cell lines), using a control depleted in HSP110 called Sh110 and a not depleted cells in HSP110. STAT3 phosphorylation is then […] by compounds 33 and 52. Depletion of HSP110 in the negative control blocked the phosphorylation of STAT3 without affecting STAT3 overall levels (FIGS. 2 and 3).

[3] = system: SW480 cells; test: Cell proliferation, Cell Trace Violet flow cytometry, SW480; format: cell-based, human; conditions: SW480 cells with shRNA control, 10 μM, 96 h
Experimental: FIG. 4A: Relative quantification of cell proliferation in SW480 cells transfected with shRNA for shRNA control (shCtrl) (from the first to the fourth columns from left to right) or HSP110-silencing (sh110) (from the fifth to the last columns, from left to right) treated with Ctrl (DMSO), compound 33, compound 52, and comparative compound 61 at a concentration of 10 μM during 96 h (Histogram columns from the left to the right). Ordinate: Percentage of SW480 cell proliferation (scale 20) for the upper figure; Statistical analysis has been performed by ANOVA **: (p<0.05); ***: p<0.005. Western blot of HSP110 and actin (first and second line of blots) for the shCtrl SW480 cells and sh110 SW480 cells (first and second columns).
(§1) Colorectal cells lines were purchased from the American Type Culture Collection. CT-26 and HCT116 were cultured in Roswell Park Memorial Institute 1640 medium. […]
(§2) Proliferation was determined by staining cells with Cell Trace Violet (Invitrogen-C34557) according to the manufacturer's procedure. Cell divisions were detected over 96 h by flow cytometry (LSRII cytometer) and the number of cell generations was estimated by ModFit software. […]

[4] = system: HCT116 cells; test: Cell proliferation, Cell Trace Violet flow cytometry, HCT116; format: cell-based, human; conditions: HCT116 cells with shRNA control, 10 μM, 96 h
Experimental: FIG. 4B: Relative quantification of cell proliferation in HCT116 cells transfected with shRNA for shRNA control (shCtrl) (from the first to the fourth columns from left to right) or HSP110-silencing (sh110) ((from the fifth to the last columns, from left to right) left to right) treated with Ctrl (DMSO), compound 33, compound 52, and comparative compound 61 at a concentration of 10 μM during 96 h (Histogram from the left to the right). Ordinate: Percentage of HCT116 cell proliferation (scale 20) for the lower figure. Statistical analysis has been performed by ANOVA **: (p<0.05); ***: p<0.005. Western blot of HSP110 and actin (first and second line of blots) for the shCtrl HCT116 cells and sh110 HCT116 cells (first and second columns).
as §1, §2

[5] = target: T2, HSP110/Myd88 interaction (Homo sapiens, UniProt Q92598); test: Immunoprecipitation of HSP110/Myd88 in DLBCL cell line; format: cell-based; conditions: IP Myd88, Western Blot
T2 construct: endogenous in cells
Source text: FIG. 10A: Immunoprecipitation (IP) analysis of HSP110 (first line), Myd88 (second line), heavy chains (third line) and actin (fourth line) in large B cell lymphoma cell lines (DLBCL).
Left part of FIG. 10A (“Inputs”): treated with (from left to right column of the left part of FIG. 10A) DMSO, compound 52 (5052), compound 33 (5033) and compound 61 (5061) (Negative control);
Middle part of FIG. 10A (“IP Myd88”): treated with (from left to right column of the middle part of FIG. 10A) DMSO, compound 52, compound 33 and compound 61 (as the negative control); Myd88 was immunoprecipitated with an antibody specifically directed against Myd88.
MyD88 was immuno-precipitated from the cell line which has been non-treated or treated with the HSP110 inhibitors.

T1 sequence (Q92598 whole entry, looked up): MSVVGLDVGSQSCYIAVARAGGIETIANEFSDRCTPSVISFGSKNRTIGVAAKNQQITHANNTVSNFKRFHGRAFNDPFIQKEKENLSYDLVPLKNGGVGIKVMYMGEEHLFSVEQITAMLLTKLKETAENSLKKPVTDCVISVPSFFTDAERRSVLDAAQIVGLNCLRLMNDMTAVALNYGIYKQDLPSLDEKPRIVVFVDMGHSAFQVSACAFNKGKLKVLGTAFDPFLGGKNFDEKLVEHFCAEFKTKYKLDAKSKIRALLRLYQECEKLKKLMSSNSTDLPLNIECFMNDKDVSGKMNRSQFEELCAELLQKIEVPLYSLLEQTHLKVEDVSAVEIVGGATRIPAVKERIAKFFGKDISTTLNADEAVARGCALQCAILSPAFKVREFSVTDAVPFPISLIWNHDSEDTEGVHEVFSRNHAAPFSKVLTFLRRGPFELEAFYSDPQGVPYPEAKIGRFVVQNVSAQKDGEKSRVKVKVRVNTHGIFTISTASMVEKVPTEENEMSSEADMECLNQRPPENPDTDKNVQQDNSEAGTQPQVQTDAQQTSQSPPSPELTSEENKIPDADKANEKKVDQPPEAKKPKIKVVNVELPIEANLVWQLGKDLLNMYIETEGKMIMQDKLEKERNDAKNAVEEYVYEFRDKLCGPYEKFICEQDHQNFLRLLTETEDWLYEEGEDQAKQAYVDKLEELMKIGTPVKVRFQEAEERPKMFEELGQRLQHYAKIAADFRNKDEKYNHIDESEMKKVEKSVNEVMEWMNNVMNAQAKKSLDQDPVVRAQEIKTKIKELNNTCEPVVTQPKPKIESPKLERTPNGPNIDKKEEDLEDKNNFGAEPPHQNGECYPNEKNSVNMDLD
T2 sequence (Q92598 2-858 limits assumed): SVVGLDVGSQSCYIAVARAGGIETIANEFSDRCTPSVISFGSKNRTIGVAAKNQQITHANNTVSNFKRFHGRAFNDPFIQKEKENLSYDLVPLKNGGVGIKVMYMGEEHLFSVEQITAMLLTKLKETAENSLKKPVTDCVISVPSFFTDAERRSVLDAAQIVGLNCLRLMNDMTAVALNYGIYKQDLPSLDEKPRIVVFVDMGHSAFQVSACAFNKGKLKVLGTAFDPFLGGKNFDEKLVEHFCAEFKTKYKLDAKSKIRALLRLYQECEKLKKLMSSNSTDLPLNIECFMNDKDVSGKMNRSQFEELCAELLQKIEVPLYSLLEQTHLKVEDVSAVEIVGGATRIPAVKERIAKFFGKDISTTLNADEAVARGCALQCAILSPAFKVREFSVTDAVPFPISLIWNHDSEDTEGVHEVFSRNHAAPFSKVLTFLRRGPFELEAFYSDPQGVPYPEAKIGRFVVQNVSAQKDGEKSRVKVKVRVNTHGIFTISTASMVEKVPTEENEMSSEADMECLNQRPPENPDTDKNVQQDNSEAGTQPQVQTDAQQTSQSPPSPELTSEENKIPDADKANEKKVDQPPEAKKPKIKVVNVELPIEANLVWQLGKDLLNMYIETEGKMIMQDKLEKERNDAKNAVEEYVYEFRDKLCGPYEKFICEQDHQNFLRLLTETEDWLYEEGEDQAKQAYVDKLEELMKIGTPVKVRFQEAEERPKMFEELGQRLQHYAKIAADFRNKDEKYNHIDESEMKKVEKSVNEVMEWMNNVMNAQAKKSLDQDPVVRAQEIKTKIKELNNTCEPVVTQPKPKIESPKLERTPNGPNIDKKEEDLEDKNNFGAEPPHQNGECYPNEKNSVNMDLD

Row | Structure (SMILES) | IC50 [1] [µM] | P-STAT3 level [2] | hampering of cell proliferation [3] [%] | hampering of cell proliferation [4] | HSP110/Myd88 interaction [5]
1 | COc1ccc(-c2ncc(-c3ncc(-c4cc(OC)c(OC)c(OC)c4)cc3/C=C/c3ccccc3)cc2C)cc1OC [compound 33, (E)-6′-(3,4-Dimethoxyphenyl)-5′-methyl-3-styryl-5-(3,4,5-trimethoxyphenyl)-2,3′-bipyridine] | 58.3 ± 1.7 | ~60% | 60 | around 40% | abrogate
2 | COc1cc(-c2cnc(-c3cnc(-c4cc(OC)c(OC)c(OC)c4)c(C)c3)c(/C=C/c3ccccc3)c2)cc(OC)c1OC [compound 52, (E)-5′-Methyl-3-styryl-5,6′-bis(3,4,5-trimethoxyphenyl)-2,3′-bipyridine] | 86 ± 1.5 | about 20% | 82 | around 40% | abrogate
